For 25 compounds, remaining activity results are on record in patent US10975083B2, “Blood-brain barrier-penetrant dopamine-β-hydroxylase inhibitors” (BIAL—PORTELA & Cᵃ, S.A., priority 2016, dated 2021).

Each structure is given as a SMILES string. Where two headings read alike, the source gives them in different places.

This test concerns the target T1, DβH (Homo sapiens, UniProt P09172).
T1 construct: reaction mixture (total volume 500 μl) contained: cellular homogenate (75 μg total protein); host or cells: SK-N-SH cell homogenate
T1 sequence (P09172 1-617): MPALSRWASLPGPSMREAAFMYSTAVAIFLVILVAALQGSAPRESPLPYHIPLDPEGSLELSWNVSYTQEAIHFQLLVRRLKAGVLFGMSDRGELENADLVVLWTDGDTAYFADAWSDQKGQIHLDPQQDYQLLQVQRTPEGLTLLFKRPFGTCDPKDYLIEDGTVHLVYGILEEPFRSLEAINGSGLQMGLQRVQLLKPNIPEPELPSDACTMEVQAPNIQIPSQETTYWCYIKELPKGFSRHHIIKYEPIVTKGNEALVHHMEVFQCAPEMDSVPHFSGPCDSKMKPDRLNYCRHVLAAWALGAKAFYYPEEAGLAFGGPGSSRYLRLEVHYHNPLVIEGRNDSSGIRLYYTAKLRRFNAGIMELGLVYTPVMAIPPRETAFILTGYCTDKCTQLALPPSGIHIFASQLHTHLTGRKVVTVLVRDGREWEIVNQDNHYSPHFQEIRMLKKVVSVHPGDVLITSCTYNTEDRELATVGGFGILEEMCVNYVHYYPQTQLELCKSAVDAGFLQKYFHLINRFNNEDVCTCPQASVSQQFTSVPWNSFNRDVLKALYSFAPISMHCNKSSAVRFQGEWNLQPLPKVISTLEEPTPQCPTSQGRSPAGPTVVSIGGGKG
Put plainly: DβH inhibition cell assay (SK-N-SH cellular homogenates, tyramine to octopamine). Format: biochemical. The note with it: for remaining activity at 10 µM: inhibitor 10 μM, read-out: DβH activity in % of Ctrl (10 μM); for remaining activity at 0.1 µM: inhibitor 0.1 μM, read-out: DβH activity in % of Ctrl (0.1 μM); for remaining activity at 1 µM: read-out: DβH activity in % of Ctrl (1 μM). The protocol: The ability of a compound to inhibit DβH activity may be assessed using the following cell assay. […] . […] Fetal bovine serum was removed from cells for 4 h prior to collection.
For the preparation of cellular homogenates, media was removed and cell monolayers were washed with 50 mM Tris-HCl pH 7.4. Cells were subsequently scrapped off the flasks and were resuspended in 50 mM Tris pH 7.4. Cell suspensions were homogenized with SilentCrusher M (Heidolph) for a short stroke and resultant homogenates were aliquoted and stored frozen at −80° C.
Total protein was quantified in cellular homogenates with BioRad Protein Assay (BioRad) using a standard curve of BSA (50-250 μg/mL).
DβH activity was measured by a modification of the method of Nagatsu and Udenfriend (Nagatsu, T. and S. Udenfriend: “Photometric assay of dopamine-hydroxylase activity in human blood.” Clin. Chem. 18(9): 980-3, 1972) which is based on the enzymatic hydroxylation of tyramine into octopamine. The octopamine formed is subsequently oxidized to p-hydroxybenzaldehyde and measured by spectrophotometry. In brief, reaction mixture (total volume 500 μl) contained: cellular homogenate (75 μg total protein) sodium acetate pH 5.0 (200 mM), NEM (30 mM), CuSO4 (5 μM), catalase aqueous solution (0.5 mg/mL), pargyline-HCl (1 mM), sodium fumarate (10 mM), ascorbic acid (10 mM), inhibitor or vehicle and tyramine (25 mM). After a 10 min pre-incubation period at 37° C., the reaction was initiated by the addition of tyramine. Reaction was carried out for 45 min at 37° C. before termination with 50 μl PCA (2 M).
Samples were centrifuged for 3 min at 16100 g and supernatants were subjected to solid phase extraction. Solid phase extraction was performed using either SPE cartridges ISOLUTE SCX-3 (100 mg, 1 mL) or SPE 2 mL fixed 96 well plates ISOLUTE SCX-3 (100 mg) previously equilibrated with MilliQ water. Columns/plates were centrifuged at 150 g for 2 min. Eluate was discarded and matrix was washed with 1 mL of MilliQ water after which octopamine was eluted with 2×0.25 mL ammonium hydroxide (4 M). The oxidation of octopamine to p-hydroxybenzaldehyde was carried out for 6 min with 100 μl sodium periodate (2%) and was stopped with 100 μl sodium metabisulfite (10%). Absorbance was measured at 330 nm on a Spectramax microplate reader (Molecular Devices, Sunnyvale, Calif.). All enzymatic reactions were performed in duplicate. Results are reported in the table below as activity in % of control at the inhibitor concentration tested.

Setting [1] is: inhibitor 1 μM, SK-N-SH cell homogenate.

On to `NC(=S)N1CCCC(c2ccccc2)C1` (centres unmarked) [Example 4, 3-phenylpiperidine-1-carbothioamide], for which, where the note is “SK-N-SH cell homogenate”, the remaining activity at 10 µM is 18.6%.
Turning to `Fc1ccc(Br)c(F)c1[C@]12C[C@H]1c1n[nH]c(=S)n1C2` [Example 119, (5aS,6aR)-5a-(3-bromo-2,6-difluorophenyl)-5,5a,6,6a-tetrahydrocyclopropa[3,4]pyrrolo[2,1-c][1,2,4]triazole-3(2H)-thione], for the setting “SK-N-SH cell homogenate”, the remaining activity at 0.1 µM is 49.1%. Besides, under setting [1], the remaining activity at 1 µM came out at 4.5%.
On to `NC(=S)N1CC[C@@H](c2c(F)cc(F)cc2F)C1` [Example 21, (S)-3-(2,4,6-trifluorophenyl)pyrrolidine-1-carbothioamide], for which the remaining activity at 1 µM under setting [1] was found to be 17.5%.
For `Cc1[nH]c(=S)n2c1[C@@H]1C[C@]1(c1cc(F)cc(F)c1)C2` [Example 79, (5aS,6aR)-5a-(3,5-difluorophenyl)-1-methyl-5,5a,6,6a-tetrahydrocyclopropa[3,4]pyrrolo[1,2-c]imidazole-3 (2H)-thione], the remaining activity at 1 µM under setting [1] worked out at 13%.
Regarding `S=c1[nH]cc2n1C[C@@]1(c3cc(Cl)cc(Cl)c3)C[C@@H]21` [Example 109, (5aS,6aR)-5a-(3,5-dichlorophenyl)-5,5a,6,6a-tetrahydrocyclopropa[3,4]pyrrolo[1,2-c]imidazole-3 (2H)-thione], the remaining activity at 0.1 µM (SK-N-SH cell homogenate) was determined as 67.5%. In addition, the remaining activity at 1 µM under setting [1] is 17.2%.
As to `S=C1NCC2CC(c3ccccc3)CN12` (centres unmarked) [Example 44, 6-Phenyltetrahydro-1H-pyrrolo[1,2-c]imidazole-3(2H)-thione], the remaining activity at 1 µM under setting [1] worked out at 70.9%. Under “SK-N-SH cell homogenate”, the remaining activity at 10 µM was determined as 13.7%.
With `CCCCc1[nH]c(=S)n2c1C[C@@H](c1cc(F)cc(F)c1)C2` [Example 80, (S)-1-butyl-6-(3,5-difluorophenyl)-6,7-dihydro-2H-pyrrolo[1,2-c]imidazole-3(5H)-thione], the remaining activity at 1 µM stood at 56.7%.
With `Fc1cc(Br)cc([C@]23C[C@H]2c2c[nH]c(=S)n2C3)c1` [Example 94, (5aS,6aR)-5a-(3-bromo-5-fluorophenyl)-5,5a,6,6a-tetrahydrocyclopropa[3,4]pyrrolo[1,2-c]imidazole-3 (2H)-thione], the remaining activity at 0.1 µM (SK-N-SH cell homogenate) is 18.1%. For the same compound, the remaining activity at 1 µM under setting [1] was found to be 0%.
For `Fc1cc(F)cc([C@]23C[C@H]2Cc2c[nH]c(=S)n2C3)c1` [Example 106, (5aS,6aS)-5a-(3,5-difluorophenyl)-2,5,5a,6,6a,7-hexahydro-3H-cyclopropa[d]imidazo[1,5-a]pyridine-3-thione], the remaining activity at 1 µM was 16.3%.
Regarding `Fc1cc(F)c(F)c([C@H]2CC3CNC(=S)N3C2)c1F` (stereo partly drawn) [Example 111, (6R)-6-(2,3,5,6-tetrafluorophenyl)tetrahydro-1H-pyrrolo[1,2-c]imidazole-3(2H)-thione], under setting [1], the remaining activity at 1 µM was found to be 48.3%.
As to `[2H]C1([2H])C2([2H])c3c[nH]c(=S)n3CC12c1cc(Cl)ccc1F` (centres unmarked) [Example 102, 5a-(5-chloro-2-fluorophenyl)-5,5a,6,6a-tetrahydrocyclopropa[3,4]pyrrolo[1,2-c]imidazole-3(2H)-thione-6,6,6a-d3], the remaining activity at 0.1 µM (SK-N-SH cell homogenate) turned out to be 32%. The remaining activity at 1 µM under setting [1] is 0%.
As to `Fc1cccc([C@@]23C[C@@H]2c2c[nH]c(=S)n2C3)c1F` [Example 67, (5aR,6aS)-5a-(2,3-difluorophenyl)-5,5a,6,6a-tetrahydrocyclopropa[3,4]pyrrolo[1,2-c]imidazole-3(2H)-thione], under setting [1], the remaining activity at 1 µM was 36.1%.
As to `Fc1ccc(F)c([C@H]2Cc3c[nH]c(=S)n3C2)c1F` [Example 113, (R)-6-(2,3,6-trifluorophenyl)-2,5,6,7-tetrahydro-3H-pyrrolo[1,2-c]imidazole-3-thione], the remaining activity at 0.1 µM (SK-N-SH cell homogenate) turned out to be 39.6%. Also, the remaining activity at 1 µM under setting [1] amounted to 0%.
Consider `Fc1ccc(Br)cc1[C@]12C[C@H]1c1n[nH]c(=S)n1C2` [Example 120, (5aS,6aR)-5a-(5-bromo-2-fluorophenyl)-5,5a,6,6a-tetrahydrocyclopropa[3,4]pyrrolo[2,1-c][1,2,4]triazole-3(2H)-thione], for which the remaining activity at 0.1 µM (SK-N-SH cell homogenate) was found to be 86.4%. For the same compound, the remaining activity at 1 µM under setting [1] was 21.8%.
For `Fc1ccc(Cl)c(F)c1[C@H]1Cc2c[nH]c(=S)n2C1` [Example 86, (R)-6-(3-chloro-2,6-difluorophenyl)-2,5,6,7-tetrahydro-3H-pyrrolo[1,2-c]imidazole-3-thione] the same measures were 25.3% and 0%.
`Cc1[nH]c(=S)n2c1C[C@@H](c1c(F)ccc(Cl)c1F)C2` [Example 105, (S)-6-(3-chloro-2,6-difluorophenyl)-1-methyl-2,5,6,7-tetrahydro-3H-pyrrolo[1,2-c]imidazole-3-thione]: the remaining activity at 0.1 µM (SK-N-SH cell homogenate) is 17.4%. For the same compound, the remaining activity at 1 µM under setting [1] stood at 0%.
Regarding `CCCNC(=S)N1C[C@@H]2C[C@]2(c2cc(F)cc(F)c2)C1` [Example 39, (1S,5R)-1-(3,5-Difluorophenyl)-N-propyl-3-azabicyclo[3.1.0]hexane-3-carbothioamide], for the setting “SK-N-SH cell homogenate”, the remaining activity at 0.1 µM worked out at 40.4%. Further, the remaining activity at 1 µM under setting [1] turned out to be 0.3%.
`NC(=S)N1CCC(c2ccc(F)c(F)c2F)C1` (centres unmarked) [Example 22, 3-(2,3,4-trifluorophenyl)pyrrolidine-1-carbothioamide]: under setting [1], the remaining activity at 1 µM amounted to 27.4%.
`Fc1ccc(Br)cc1[C@]12C[C@H]1c1c[nH]c(=S)n1C2` [Example 93, (5aS,6aR)-5a-(5-bromo-2-fluorophenyl)-5,5a,6,6a-tetrahydrocyclopropa[3,4]pyrrolo[1,2-c]imidazole-3 (2H)-thione]: the remaining activity at 0.1 µM (SK-N-SH cell homogenate) is 0%. Further, the remaining activity at 1 µM under setting [1] was 0%.
On to `[2H]C1([2H])n2c(c[nH]c2=S)[C@@H]2C[C@@]21c1cc(Cl)ccc1F` [Example 91, (5aS,6aR)-5a-(5-chloro-2-fluorophenyl)-5,5a,6,6a-tetrahydrocyclopropa[3,4]pyrrolo[1,2-c]imidazole-3(2H)-thione-5,5-d2], for which, for the setting “SK-N-SH cell homogenate”, the remaining activity at 0.1 µM stood at 22%. Moreover, the remaining activity at 1 µM under setting [1] turned out to be 0%.
As to `Cc1[nH]c(=S)n2c1C[C@@H](c1cc(F)cc(F)c1)C2` [Example 95, (S)-6-(3,5-difluorophenyl)-1-methyl-2,5,6,7-tetrahydro-3H-pyrrolo[1,2-c]imidazole-3-thione], the remaining activity at 1 µM was 28.9%.
With `Cc1[nH]c(=S)n2c1C[C@@H](c1c(F)c(F)cc(F)c1F)C2` [Example 97, (S)-1-methyl-6-(2,3,5,6-tetrafluorophenyl)-2,5,6,7-tetrahydro-3H-pyrrolo[1,2-c]imidazole-3-thione], under “SK-N-SH cell homogenate”, the remaining activity at 0.1 µM amounted to 41.9%. The remaining activity at 1 µM under setting [1] was 7.9%.
As to `NNC(=S)N1CC2CC2(c2cc(F)cc(F)c2)C1` (centres unmarked) [Example 45, 1-(3,5-Difluorophenyl)-3-azabicyclo[3.1.0]hexane-3-carbothiohydrazide], the remaining activity at 1 µM under setting [1] amounted to 29.1%.
`NC(=S)N1CCC(c2c(F)c(F)c(F)c(F)c2F)C1` (centres unmarked) [Example 29, 3-(perfluorophenyl)pyrrolidine-1-carbothioamide]: the remaining activity at 0.1 µM (SK-N-SH cell homogenate) came out at 26.9%.
For the compound `S=c1[nH]cc2n1CC(C1CCCCC1)C2` (centres unmarked) [Example 81, 6-cyclohexyl-6,7-dihydro-2H-pyrrolo[1,2-c]imidazole-3(5H)-thione], the remaining activity at 1 µM under setting [1] turned out to be 59.4%.
